The subject of experiment [1] is HGEPp cells. The conditions noted are these: 100 μg/mL pretreatment; taken from PCT/IB2017/001312; cited from earlier work.
The subject of the next experiment is GCLC. The experiment is described as follows: Human oxidative stress RT2 Profiler PCR array in HGEPp cells: GCLC. In kind it is cell-based. The following applies: 100 μg/ml, 24 h, RT-PCR ΔΔCt. The method, then:
(§1) RT-PCR was performed on an iCycler.

The next experiment relates to GSTP1. The experiment is described as follows: Human oxidative stress RT2 Profiler PCR array in HGEPp cells: GSTP1. In kind it is cell-based. The following applies: 100 μg/ml, 24 h, RT-PCR ΔΔCt. The procedure: as §1
The test system of a further experiment is PTGS1. In words: Human oxidative stress RT2 Profiler PCR array in HGEPp cells: PTGS1. In kind it is cell-based. The following applies: 100 μg/ml, 24 h, RT-PCR ΔΔCt. The procedure: as §1
A further experiment concerns GPX1. In words: Human oxidative stress RT2 Profiler PCR array in HGEPp cells: GPX1. In kind it is cell-based. The conditions noted are these: 100 μg/ml, 24 h, RT-PCR ΔΔCt. The method, then:
as §1

Another experiment relates to GCLM. The experiment is described as follows: Human oxidative stress RT2 Profiler PCR array in HGEPp cells: GCLM. In kind it is cell-based. The following applies: 100 μg/ml, 24 h, RT-PCR ΔΔCt. The procedure: as §1
The next experiment concerns UCP2. In words: Human oxidative stress RT2 Profiler PCR array in HGEPp cells: UCP2. In kind it is cell-based. The following applies: 100 μg/ml, 24 h, RT-PCR ΔΔCt. The procedure: as §1
For the next experiment, the system named is SOD1. In words: Human oxidative stress RT2 Profiler PCR array in HGEPp cells: SOD1. In kind it is cell-based. The following applies: 100 μg/ml, 24 h, RT-PCR ΔΔCt. The procedure: as §1
The next experiment deals with ALOX12. The experiment is described as follows: Human oxidative stress RT2 Profiler PCR array in HGEPp cells: ALOX12. The following applies: 100 μg/ml, 24 h, RT-PCR ΔΔCt. In kind it is cell-based. The method, then:
as §1

The subject of another experiment is GTF2i. In words: Human oxidative stress RT2 Profiler PCR array in HGEPp cells: GTF2i. In kind it is cell-based. The following applies: 100 μg/ml, 24 h, RT-PCR ΔΔCt. The method, then:
as §1

The next experiment has as its system NQO1. In words: Human oxidative stress RT2 Profiler PCR array in HGEPp cells: NQO1. In kind it is cell-based. The following applies: 100 μg/ml, 24 h, RT-PCR ΔΔCt. The procedure: as §1
The subject of experiment [2] is HGEPp cells. In words: ROS production in H2O2-induced oxidatively stressed HGEPp cells. The conditions noted are these: HGEPp cells pretreated 24 hrs at 100 μg/mL, then 0.3 mM H2O2 for 4 h; positive control 139%.
The next experiment deals with MPO. The experiment is described as follows: Human oxidative stress RT2 Profiler PCR array in HGEPp cells: MPO. The conditions noted are these: 100 μg/ml, 24 h, RT-PCR ΔΔCt.
For the next experiment, the system named is PRDX2. The experiment is described as follows: Human oxidative stress RT2 Profiler PCR array in HGEPp cells: PRDX2. The conditions noted are these: 100 μg/ml, 24 h, RT-PCR ΔΔCt.
In another experiment the test system is GPX4. In words: Human oxidative stress RT2 Profiler PCR array in HGEPp cells: GPX4. The following applies: 100 μg/ml, 24 h, RT-PCR ΔΔCt.

Protocol for GPX4: (§2) Pooled primary HGEPp cells were propagated in CnT-Prime epithelial culture medium provided by CellnTec on 100 mm petri dishes coated with 30 mg/ml Type I rat tail collagen (BD Biosciences) diluted in Dulbecco's phosphate-buffered saline (DPBS). HGEPp cells were grown in 12×60 mm Nunc™ Cell Culture dishes at a 2.5×10^4 cells/cm2 density concentration.
(§3) All dosing solutions contained 0.3% of DMSO which is well below the maximum tolerated DMSO percent of 0.8% for HGEPp cells.
(§4) The cDNA from above was mixed with the RT2 SYBR Green fluor Mastermix and aliquoted into the wells of the RT2 Profiler PCR Array. RT-PCR was performed on an iCycler. Gene expression was compared using Ct values and the results were calculated using ΔΔ Ct method with normalization to the average expression levels of the five common genes (ACTB, B2M, GAPDH, HPRT, and RPL13A).
Protocol for MPO: as §2, §3, §4
Protocol for PRDX2: as §2, §3, §4

For `Cc1c(-c2cnccn2)ssc1=S` [ST-617-API, 4-methyl-5-(pyrazin-2-yl)-3H-1,2-dithiole-3-thione, reference compound], the “ROS level (optical density, Normal = 100% baseline), as reported in PCT/IB2017/001312” value in the experiment with HGEPp cells [1] was 124%. The “GCLC up regulation relative fold change” value in the experiment with GCLC was 4.14 fold. For the same compound, in the experiment on GSTP1, the “GSTP1 up regulation relative fold change” value came to 2.17 fold. Further, the “PTGS1 down regulation relative fold change” value in the experiment on PTGS1 is recorded as 0.22 fold. Moreover, the “GPX1 up regulation relative fold change” value with GPX1 amounted to 4.88 fold. In addition, the “GCLM up regulation relative fold change” value in the experiment with GCLM was 3.03 fold. Further, in the experiment with UCP2, the “UCP2 down regulation relative fold change” value was determined as 0.18 fold. In addition, the “SOD1 up regulation relative fold change” value with SOD1 is reported as 2.46 fold. Besides, the “ALOX12 up regulation relative fold change” value in the experiment with ALOX12 came to 6.15 fold. Besides, the “GTF2i down regulation relative fold change” value with GTF2i was 0.34 fold. In the experiment with NQO1, the “NQO1 up regulation relative fold change” value is listed as 2.95 fold.

For `Cc1c(-c2cncc[n+]2OC2=CC(=O)OC2=O)ssc1=S` [Example 2, hydroxymaleate anhydride complex of oltipraz], the “ROS level (optical density, Normal = 100% baseline)” value with HGEPp cells [2] turned out to be 116%. Also, the “GCLC up regulation relative fold change” value with GCLC was determined as 4.52 fold. In addition, in the experiment with GSTP1, the “GSTP1 up regulation relative fold change” value stood at 3.07 fold. Besides, the “PTGS1 down regulation relative fold change” value in the experiment with PTGS1 turned out to be 0.23 fold. Also, the “GPX1 up regulation relative fold change” value with GPX1 stood at 4.8 fold. In addition, the “MPO up regulation relative fold change” value with MPO was 3.21 fold. In addition, the “PRDX2 down regulation relative fold change” value with PRDX2 is 0.26 fold. Moreover, the “GCLM up regulation relative fold change” value with GCLM is 3.01 fold. Besides, the “UCP2 down regulation relative fold change” value in the experiment on UCP2 turned out to be 0.15 fold. In addition, the “SOD1 up regulation relative fold change” value in the experiment on SOD1 is 5.13 fold. In addition, in the experiment with GPX4, the “GPX4 up regulation relative fold change” value is 2.84 fold. Also, in the experiment on ALOX12, the “ALOX12 up regulation relative fold change” value is 6.46 fold. Further, the “GTF2i down regulation relative fold change” value in the experiment with GTF2i is 0.26 fold. Moreover, in the experiment on NQO1, the “NQO1 up regulation relative fold change” value worked out at 4.07 fold.

“Diethyl Thiophosphate Complex of Oltipraz [Example 8]”: in the experiment on HGEPp cells [2], the “ROS level (optical density, Normal = 100% baseline)” value is given as 115%. Also, the “GCLC up regulation relative fold change” value in the experiment with GCLC was found to be 4.39 fold. Besides, in the experiment on GSTP1, the “GSTP1 up regulation relative fold change” value is 3.08 fold. Further, the “PTGS1 down regulation relative fold change” value in the experiment with PTGS1 is recorded as 0.23 fold. In the experiment with GPX1, the “GPX1 up regulation relative fold change” value is on record as 4.81 fold. The “MPO up regulation relative fold change” value in the experiment on MPO stood at 3.47 fold. Further, in the experiment on PRDX2, the “PRDX2 down regulation relative fold change” value came out at 0.28 fold. Moreover, in the experiment on GCLM, the “GCLM up regulation relative fold change” value stood at 3.02 fold. The “UCP2 down regulation relative fold change” value in the experiment on UCP2 is on record as 0.14 fold. Moreover, the “SOD1 up regulation relative fold change” value in the experiment with SOD1 amounted to 4.86 fold. Besides, the “GPX4 up regulation relative fold change” value with GPX4 was found to be 3.02 fold. Further, the “ALOX12 up regulation relative fold change” value with ALOX12 was determined as 6.41 fold. Besides, the “GTF2i down regulation relative fold change” value in the experiment with GTF2i is listed as 0.29 fold. In the experiment on NQO1, the “NQO1 up regulation relative fold change” value is given as 3.92 fold.

Regarding “acetyl chloride complex of oltipraz [Example 3]”, the “ROS level (optical density, Normal = 100% baseline)” value in the experiment with HGEPp cells [2] stood at 129%. Besides, in the experiment on GCLC, the “GCLC up regulation relative fold change” value is on record as 3.27 fold. The “GSTP1 up regulation relative fold change” value in the experiment with GSTP1 came out at 2.87 fold. Moreover, the “PTGS1 down regulation relative fold change” value with PTGS1 came to 0.29 fold. For the same compound, the “GPX1 up regulation relative fold change” value in the experiment on GPX1 amounted to 4.76 fold. In the experiment with MPO, the “MPO up regulation relative fold change” value is listed as 3.10 fold. The “PRDX2 down regulation relative fold change” value with PRDX2 stood at 0.33 fold. Also, the “GCLM up regulation relative fold change” value in the experiment with GCLM stood at 2.38 fold. Also, the “UCP2 down regulation relative fold change” value with UCP2 came out at 0.26 fold. Also, the “SOD1 up regulation relative fold change” value with SOD1 is on record as 4.24 fold. For the same compound, in the experiment with GPX4, the “GPX4 up regulation relative fold change” value worked out at 2.83 fold. The “ALOX12 up regulation relative fold change” value in the experiment on ALOX12 was 6.33 fold. In addition, the “GTF2i down regulation relative fold change” value in the experiment with GTF2i is recorded as 0.32 fold. Besides, the “NQO1 up regulation relative fold change” value in the experiment on NQO1 is 3.36 fold.

Turning to `Cc1c(-c2cnccn2)ssc1=S.Cl` [Example 1, hydrochloride complex of oltipraz], the “ROS level (optical density, Normal = 100% baseline)” value in the experiment with HGEPp cells [2] came out at 128%. In the experiment with GCLC, the “GCLC up regulation relative fold change” value is listed as 3.35 fold. For the same compound, the “GSTP1 up regulation relative fold change” value in the experiment with GSTP1 came out at 2.77 fold. Also, the “PTGS1 down regulation relative fold change” value with PTGS1 is listed as 0.28 fold. Besides, the “GPX1 up regulation relative fold change” value in the experiment on GPX1 amounted to 4.81 fold. Moreover, the “MPO up regulation relative fold change” value in the experiment with MPO turned out to be 3.22 fold. Further, the “PRDX2 down regulation relative fold change” value with PRDX2 amounted to 0.31 fold. For the same compound, the “GCLM up regulation relative fold change” value in the experiment with GCLM amounted to 2.33 fold. Also, the “UCP2 down regulation relative fold change” value in the experiment on UCP2 is 0.26 fold. Besides, the “SOD1 up regulation relative fold change” value in the experiment on SOD1 is 3.86 fold. Also, the “GPX4 up regulation relative fold change” value in the experiment on GPX4 is on record as 2.86 fold. In addition, in the experiment on ALOX12, the “ALOX12 up regulation relative fold change” value is 6.38 fold. The “GTF2i down regulation relative fold change” value in the experiment on GTF2i is 0.33 fold. Moreover, the “NQO1 up regulation relative fold change” value in the experiment on NQO1 is on record as 3.14 fold.

(Values after US12312343B2, “Rotomeric isomers of 4-alkyl-5-heteroaryl-3H-1,2-dithiole-3-thiones” (ST IP HOLDING AG, priority 2018, dated 2025).)
